Reference: the supplement of paper PMC11208160

assay: recombinant barcode read abundance after kanamycin selection (control-corrected) (log10(CPM+1)); higher = more efficient recombination; sequences stand for … in AGTGCAGAGAAAATCGGCCAGTTTTCTCTGCCTGCAGTCCGCATGCCGT…AGATTTATGCAGCGGACTGCCTTTCTCCCAAAGTGATAAACCGGACAGTATCATGGACCGGTTTTCCCGGTAATCCGTATTTGCAAGGTTGGTTTCACT; site = the 11-nt target
In short: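 Targets and IS621 bridge RNA target-binding loops were paired in oligos, each with a promoter, a barcode and the J23119-driven first 104 bridge RNA bases. A vector carrying the remaining 73 bp and a T7-inducible recombinase received these by Gibson cloning, and the pool was co-electroporated into E. coli with a donor plasmid. Duplicate plates contained chloramphenicol/ampicillin LB agar (control) or chloramphenicol/ampicillin/kanamycin with 0.1 mM IPTG. Recombination efficiency comes from averaged, control-corrected counts per million of recombinant-junction barcodes, reported as log10(CPM+1).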
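Note: IS621 recombinase and bridge RNA in Escherichia coli cells.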

Going from “AAGTCCTCTTGGGTTCTAACCTGTTGCTT (site AAGCCCTCTAA)” to “GCCCCATCTTGGGTTCTAACCTGTTGCCT (site GCCCAATCTAG)”, the “recombinant barcode read abundance (log10)” value falls from 0.682 to 0.00703.

Compared with “GAGAGTACTTGGGTTCTAACCTGTTGCAT (site GAGAGTACTAT)”, “GATAGGCCTTGGGTTCTAACCTGTTGCCT (site GTTAGGCCTAG)” is lower in “recombinant barcode read abundance (log10)” value: 0.982 for the first, 0.031 for the second.

Compared with “GCTTCCACTTGGGTTCTAACCTGTTGCCT (site CCTTCCACTAG)”, “CGGAATGCTTGGGTTCTAACCTGTTGCCT (site CGGAATGCTAG)” is higher in “recombinant barcode read abundance (log10)” value: 0.24 for the first, 1.38 for the second.

“AACTAATCTTGGGTTCTAACCTGTTGCCT (site AACTCATCTAG)” and “CAGAGAGCTTGGGTTCTAACCTGTTGCCT (site CGGAGAGCTAG)” are within 0.2 log units of each other in “recombinant barcode read abundance (log10)” value: 0.0864 for the first, 0.0978 for the second.

First: TGTGACACTTGGGTTCTAACCTGTTGCAA (site TGTGACACTTT)
Second: TGCCAATCTTGGGTTCTAACCTGTTGCCT (site TGCCAATCTAG)
The “recombinant barcode read abundance (log10)” value of the first is higher: 1.54 for the first, 0.242 for the second.

“TTGGGTGCTTGGGTTCTAACCTGTTGCCG (site TTGGGTTCTAG)” and “TGTGAGTCTTGGGTTCTAACCTGTTGCCT (site TGTGAGTCTAA)” are within 0.2 log units of each other in “recombinant barcode read abundance (log10)” value: 0.0649 for the first, 0.0418 for the second.

First: GTCATGGCTTGGGTTCTAACCTGTTGCCT (site GTCATGGCTAG)
Second: CCTAAGACTTGGGTTCTAACCTGTTGCCA (site CCTAAGACTAG)
The “recombinant barcode read abundance (log10)” value of the first is higher: 0.283 for the first, 0.08 for the second.

“AGAGAGTCTTGGGTTCTAACCTGTTGCCT (site AGAAAGTCTAC)” and “GTGTCACCTTGGGTTCTAACCTGTTGCCT (site GTGTCAGCTAG)” are within 0.2 log units of each other in “recombinant barcode read abundance (log10)” value: 0.0903 for the first, 0.00534 for the second.

“TGCTACCCTTGGGTTCTAACCTGTTGCCT (site TTCTACCCTAG)” and “GTACTCTCTTGGGTTCTAACCTGTTGCAG (site CCGTCAACTAG)” are within 0.2 log units of each other in “recombinant barcode read abundance (log10)” value: 0.213 for the first, 0.0592 for the second.

Compared with “CTGGGGTCTTGGGTTCTAACCTGTTGCCT (site CTGGGGTCTAG)”, “TCACAGCCTTGGGTTCTAACCTGTTGCTG (site TCATAGCCTCA)” is lower in “recombinant barcode read abundance (log10)” value: 2.45 for the first, 0.178 for the second.

“AACAGGCCTTGGGTTCTAACCTGTTGCCT (site AACAGGCCTAG)” and “CATTTCACTTGGGTTCTAACCTGTTGCCT (site GCCCATGCTCC)” are within 0.2 log units of each other in “recombinant barcode read abundance (log10)” value: 0.0525 for the first, 0.0522 for the second.

Going from “TAGTGTACTTGGGTTCTAACCTGTTGCCT (site TAGTGTTCTAG)” to “GGTGACCCTTGGGTTCTAACCTGTTGCAT (site GGTGACCCTAT)”, the “recombinant barcode read abundance (log10)” value rises from 0.376 to 2.75.

Going from “CAAAGCCCTTGGGTTCTAACCTGTTGCCT (site CAAAGCCCTAG)” to “TAGTCTGCTTGGGTTCTAACCTGTTGCCT (site TAGCCTGCTAG)”, the “recombinant barcode read abundance (log10)” value falls from 1.9 to 0.27.

“CTAGGAGCTTGGGTTCTAACCTGTTGCTT (site CTAGGAGCTCA)” and “GTCTATGCTTGGGTTCTAACCTGTTGCGT (site GTCTATGCTAC)” are within 0.2 log units of each other in “recombinant barcode read abundance (log10)” value: 0.211 for the first, 0.0203 for the second.

Going from “AGGTCCTCTTGGGTTCTAACCTGTTGCAT (site AGGTCCTCTAT)” to “ACACCCTCTTGGGTTCTAACCTGTTGCTT (site CGACCCTCTAA)”, the “recombinant barcode read abundance (log10)” value falls from 2.24 to 0.208.

First: GATCCCACTTGGGTTCTAACCTGTTGCCT (site GATGCCACTAG)
Second: TTGTAAGCTTGGGTTCTAACCTGTTGCCG (site TTGTGAGCTCC)
The “recombinant barcode read abundance (log10)” value of the first is lower: 0.192 for the first, 0.441 for the second.

Compared with “GCACATACTTGGGTTCTAACCTGTTGCCT (site GCACATACTAG)”, “CAGAATACTTGGGTTCTAACCTGTTGCGT (site CAGAATACTAC)” is higher in “recombinant barcode read abundance (log10)” value: 1.2 for the first, 2.24 for the second.

Going from “TCCTTAGCTTGGGTTCTAACCTGTTGCCG (site TCCTGAGCTCA)” to “AGCTTTGCTTGGGTTCTAACCTGTTGCCT (site AGCGTTGCTAG)”, the “recombinant barcode read abundance (log10)” value rises from 0.155 to 0.669.

“TAGCTGTCTTGGGTTCTAACCTGTTGCGT (site AATCTGTCTAC)” and “GGAGCACCTTGGGTTCTAACCTGTTGCCT (site GGAGCAGCTAG)” are within 0.2 log units of each other in “recombinant barcode read abundance (log10)” value: 0.106 for the first, 0.0718 for the second.

“TCCAAGGCTTGGGTTCTAACCTGTTGCTA (site TCCAAGGCTTA)” and “CAATCTGCTTGGGTTCTAACCTGTTGCCT (site CAATCTGCTAG)” are within 0.2 log units of each other in “recombinant barcode read abundance (log10)” value: 0.275 for the first, 0.233 for the second.

“TCTGTATCTTGGGTTCTAACCTGTTGCCT (site GCTGTATCTAG)” and “ACCAGTACTTGGGTTCTAACCTGTTGCCT (site ACCCGTACTAG)” are within 0.2 log units of each other in “recombinant barcode read abundance (log10)” value: 0.152 for the first, 0.0724 for the second.

First: ATGGCACCTTGGGTTCTAACCTGTTGCCT (site AGGGCACCTTG)
Second: CCGGACCCTTGGGTTCTAACCTGTTGCTG (site CCGTGCCCTCA)
The “recombinant barcode read abundance (log10)” value of the first is lower: 0.035 for the first, 0.336 for the second.

First: CGGAACACTTGGGTTCTAACCTGTTGCGG (site CGGGACACTCC)
Second: AGCTTAGCTTGGGTTCTAACCTGTTGCCC (site AGCTTAGCTTG)
The “recombinant barcode read abundance (log10)” value of the first is higher: 0.908 for the first, 0.0493 for the second.

“GTTGGCGCTTGGGTTCTAACCTGTTGCCT (site GTCGGCGCTAG)” and “GTGCAAACTTGGGTTCTAACCTGTTGCCT (site GTGCACACTTG)” are within 0.2 log units of each other in “recombinant barcode read abundance (log10)” value: 0.125 for the first, 0.0968 for the second.

Going from “AGCGCTTCTTGGGTTCTAACCTGTTGCCT (site ACCGCTTCTAG)” to “GGTGGGTCTTGGGTTCTAACCTGTTGCTT (site GGTGGGTCTAG)”, the “recombinant barcode read abundance (log10)” value rises from 0.423 to 0.929.

Going from “CTAGGCTCTTGGGTTCTAACCTGTTGCGG (site CTAGGCTCTCC)” to “GGCCCGCCTTGGGTTCTAACCTGTTGCCT (site AGCCCGCCTAG)”, the “recombinant barcode read abundance (log10)” value falls from 2.32 to 0.0411.

Going from “ATATGGACTTGGGTTCTAACCTGTTGCTA (site ATAAGGACTTA)” to “CCGTGCCCTTGGGTTCTAACCTGTTGCGT (site CCGTGCCCTAC)”, the “recombinant barcode read abundance (log10)” value rises from 0.65 to 1.92.

First: CGTACCTCTTGGGTTCTAACCTGTTGCTT (site CGTACCTCTAA)
Second: TAAGCTACTTGGGTTCTAACCTGTTGCTG (site TAAGCTACTCA)
The “recombinant barcode read abundance (log10)” value of the first is lower: 0.579 for the first, 0.885 for the second.

“AGGTAACCTTGGGTTCTAACCTGTTGCCT (site TGGTAACCTAG)” and “CACTATCCTTGGGTTCTAACCTGTTGCGG (site CACTAGCCTCC)” are within 0.2 log units of each other in “recombinant barcode read abundance (log10)” value: 0.179 for the first, 0.0909 for the second.

Going from “GAACTTGCTTGGGTTCTAACCTGTTGCCT (site GAACTTGCTAG)” to “CAAGATTCTTGGGTTCTAACCTGTTGCCT (site CAAGATTCTAG)”, the “recombinant barcode read abundance (log10)” value rises from 1.24 to 1.69.

“CGTCACACTTGGGTTCTAACCTGTTGCCT (site CGGCACACTAG)” and “CCTAAGCCTTGGGTTCTAACCTGTTGCAT (site GGACGCACTCC)” are within 0.2 log units of each other in “recombinant barcode read abundance (log10)” value: 0.052 for the first, 0.111 for the second.

First: AGATTTCCTTGGGTTCTAACCTGTTGCAT (site CATCCGACTGA)
Second: CGTGACCCTTGGGTTCTAACCTGTTGCGG (site CGTGACCCTCC)
The “recombinant barcode read abundance (log10)” value of the first is lower: 0.0339 for the first, 2.34 for the second.

Compared with “AGTCTCTCTTGGGTTCTAACCTGTTGCCT (site AGTGACTCTAG)”, “CTATCCTCTTGGGTTCTAACCTGTTGCAT (site CTAGCCTCTAT)” is higher in “recombinant barcode read abundance (log10)” value: 0.0251 for the first, 0.537 for the second.

First: TGATCTACTTGGGTTCTAACCTGTTGCTT (site TGCTCTACTAA)
Second: ATACCATCTTGGGTTCTAACCTGTTGCCT (site ATTCCATCTAG)
The “recombinant barcode read abundance (log10)” value of the first is lower: 0.0846 for the first, 0.34 for the second.

First: AGGTCCTCTTGGGTTCTAACCTGTTGCTA (site AGGTCCTCTTA)
Second: CAGTGTCCTTGGGTTCTAACCTGTTGCCG (site CAGTGTCCTCG)
The “recombinant barcode read abundance (log10)” value of the first is higher: 1.96 for the first, 1.45 for the second.

“ATTGGTCCTTGGGTTCTAACCTGTTGCCT (site ATCGGTCCTAG)” and “ACGAGGACTTGGGTTCTAACCTGTTGCCG (site ACGAAGACTCG)” are within 0.2 log units of each other in “recombinant barcode read abundance (log10)” value: 0.27 for the first, 0.232 for the second.

“TAGCCTACTTGGGTTCTAACCTGTTGCGG (site TAGCCTACTTC)” and “ATTTGAACTTGGGTTCTAACCTGTTGCCT (site ATTTGTACTAG)” are within 0.2 log units of each other in “recombinant barcode read abundance (log10)” value: 0.00783 for the first, 0.101 for the second.

Compared with “CCTTGCCCTTGGGTTCTAACCTGTTGCCT (site CGTTGCCCTAG)”, “TAGAACTCTTGGGTTCTAACCTGTTGCCC (site TAGAACTCTGG)” is higher in “recombinant barcode read abundance (log10)” value: 0.1 for the first, 0.427 for the second.

“GATGCACCTTGGGTTCTAACCTGTTGCGG (site TGATTGACTAA)” and “GCGTATCCTTGGGTTCTAACCTGTTGCCT (site GCGCATCCTAG)” are within 0.2 log units of each other in “recombinant barcode read abundance (log10)” value: 0.0617 for the first, 0.0623 for the second.

“CTGGCCACTTGGGTTCTAACCTGTTGCCT (site CAGGCCACTAG)” and “CGCTGGCCTTGGGTTCTAACCTGTTGCTT (site CGCTGTCCTAA)” are within 0.2 log units of each other in “recombinant barcode read abundance (log10)” value: 0.115 for the first, 0.0658 for the second.

First: GACTTGCCTTGGGTTCTAACCTGTTGCCT (site GACTTGCCTAG)
Second: CTAGGATCTTGGGTTCTAACCTGTTGCAT (site CTAGGATCTAT)
The “recombinant barcode read abundance (log10)” value of the first is lower: 0.816 for the first, 2.45 for the second.

Compared with “ACAAACCCTTGGGTTCTAACCTGTTGCCT (site ACAAATCCTAG)”, “GACCACTCTTGGGTTCTAACCTGTTGCCT (site GACCACTCTAG)” is higher in “recombinant barcode read abundance (log10)” value: 0.0456 for the first, 2.39 for the second.

Going from “CTGATGACTTGGGTTCTAACCTGTTGCCT (site CTGATGACTAG)” to “GTGCTTACTTGGGTTCTAACCTGTTGCCT (site GAGCTTACTAG)”, the “recombinant barcode read abundance (log10)” value falls from 0.999 to 0.0771.
